The NIST ThermoML archive (doi:10.1016/j.tca.2010.08.002)

Assays:
[1] = molar heat capacity at constant pressure; details: 101.33 kPa, Vacuum adiabatic calorimetry
[2] = for molar entropy: 101.33 kPa, Vacuum adiabatic calorimetry; for Triple point temperature: Adiabatic calorimetry
[3] = Molar enthalpy of transition or fusion; details: Adiabatic calorimetry

CCCCn1cc[n+](C)c1.O=S(=O)([O-])C(F)(F)F [1-butyl-3-methylimidazolium trifluoromethanesulfonate]
Details | molar entropy, [2] [J/K/mol] | molar heat capacity at constant pressure, [1] [J/K/mol]
5 K, Crystal 2 | 0.4944 | 1.486
10 K, Crystal 2 | 3.77 | 10.2
15 K, Crystal 2 | 10.39 | 23.78
20 K, Crystal 2 | 19.26 | 38.56
25 K, Crystal 2 | 29.42 | 52.98
30 K, Crystal 2 | 40.29 | 66.38
35 K, Crystal 2 | 51.44 | 78.37
40 K, Crystal 2 | 62.61 | 88.95
45 K, Crystal 2 | 73.65 | 98.67
50 K, Crystal 2 | 84.51 | 107.5
55 K, Crystal 2 | 95.14 | 115.5
60 K, Crystal 2 | 105.5 | 123
65 K, Crystal 2 | 115.6 | 130
70 K, Crystal 2 | 125.5 | 136.6
80 K, Crystal 2 | 144.6 | 148.9
90 K, Crystal 2 | 162.8 | 160
100 K, Crystal 2 | 180.2 | 170.5
110 K, Crystal 2 | 196.9 | 180.5
120 K, Crystal 1 | – | 192.4
120 K, Crystal 2 | – | 192.4
130 K, Crystal 1 | 228.7 | 198.6
140 K, Crystal 1 | 243.7 | 206.9
150 K, Crystal 1 | 258.3 | 216.1
160 K, Crystal 1 | 272.5 | 225.6
170 K, Crystal 1 | 286.5 | 235.5
180 K, Crystal 1 | 300.3 | 245.9
190 K, Crystal 1 | 313.8 | 256.7
200 K, Crystal 1 | 327.3 | 267.8
210 K, Crystal 1 | 340.6 | 279.3
220 K, Crystal 1 | 353.9 | 290.9
230 K, Crystal 1 | 367.1 | 302.8
240 K, Crystal 1 | 380.2 | 314.9
250 K, Crystal 1 | 393.3 | 327.1
260 K, Crystal 1 | 406.4 | 339.4
270 K, Crystal 1 | 419.4 | 351.9
280 K, Crystal 1 | 432.5 | 364.5
290 K, Crystal 1 | 445.5 | 377.3
290.98 K, Crystal 1 | 446.8 | 378.5
290.98 K, Liquid | 513.6 | 423.9
298.15 K, Liquid | 523.9 | 427.7
300 K, Liquid | 526.6 | 428.6
310 K, Liquid | 540.7 | 433.9
320 K, Liquid | 554.6 | 439.2
330 K, Liquid | 568.2 | 444.6
340 K, Liquid | 581.5 | 450
350 K, Liquid | 594.7 | 455.4
360 K, Liquid | 607.6 | 460.9
370 K, Liquid | 620.3 | 466.4

Details | Molar enthalpy of transition or fusion, [3] [kcal/mol] | Triple point temperature, [2] [K]
Crystal 1 | 4.644 | 290.98
Crystal 2 | 0.00311 | 120
